For test [1], the system named is carageenan-induced edema. Briefly: Carrageenan-induced rat paw edema test (anti-inflammatory activity). It counts as in vivo, Sprague-Dawley rats. The note with it: rat paw edema, 50 mg/kg, reading 3 hours after carrageenan, [(Control−Test)/Control]×100%; for inhibition in vivo at 50 mg/kg: Rattus norvegicus, po, 3 h, read-out: % Protection P. A digest of the protocol: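 Edema was raised by sub-plantar injection of 1% carrageenan into the right hind paw, 1 h after dosing 18 h-fasted male/female Sprague-Dawley rats (150-250 g) with 50 mg/kg p.o. in 0.1% CMC. Swelling was measured by displacement 3 h later and expressed as % protection against saline control.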

For test [2], the system named is NF-κB. The test can be described thus: TNF-α-induced NF-κB-dependent luciferase expression in HEK cells. The note with it: luciferase in HEK/NF-κB cells, as described in Example 398; for inhibition at 1 µM: Homo sapiens, HEK293, 1 uM, read-out: NFkB inhibition @ 1 uM. The test is classed as cell-based.
Test [3] concerns AP-1. Briefly: PMA-induced AP-1 luciferase expression in HEK cells. The test is classed as cell-based. Conditions: luciferase in HEK/AP-1 cells, as described in Example 398; for inhibition at 1 µM: AP1, 1 uM.

From patent publication US8829014B2, “Thiazole and thiophene analogues, and their use in treating autoimmune diseases and cancers” (Board of Supervisors of Louisiana State University and …, priority 2006, dated 2014) come the findings set out here.

For “2-[4-(4-Methylsulfanyl-phenyl)-5-morpholin-4-yl-thiophen-2-yl]-3-phenyl-3H-quinazolin-4-one [Example 276]”, the “% Protection P” value in test [1] stood at 49%. In addition, the “NFkB inhibition @ 1 uM” value in test [2] is given as −10. In test [3], the “AP-1 inhibition @ 1 uM” value is reported as −17.

On to “4-{3-(4-Methanesulfonyl-phenyl)-5-[5-methyl-5-(2,2,2-trifluoro-ethoxy)-pyridine-2-yl]-thiophene-2-yl}-morpholine [Example 53]”, for which the “% Protection P” value in test [1] is 2.08%. Also, in test [2], the “NFkB inhibition @ 1 uM” value was −2.17. Further, in test [3], the “AP-1 inhibition @ 1 uM” value turned out to be 25.04.

Consider `Cc1ccc(C(=O)c2cc(-c3ccccc3)c(N3CCOCC3)s2)cc1` [Example 43, (5-Morpholin-4-yl-4-phenyl-thiophen-2-yl)-p-tolyl-methanone], for which the inhibition in vivo at 50 mg/kg in test [1] was found to be 5.33%. Moreover, the inhibition at 1 µM was -15.3% in test [2] and 27.3% in test [3]. `COc1ccc(C(=O)c2cc(-c3ccccc3)c(N3CCOCC3)s2)cc1` [Example 44, (4-Methoxy-phenyl)-(5-morpholin-4-yl-4-phenyl-thiophene-2-yl)-methanone]: the inhibition in vivo at 50 mg/kg in test [1] is 66.7%. Also, the values for the inhibition at 1 µM in test [2] and in test [3] were 14.9% and 55.4%, respectively. With `CSc1ccc(C(=O)c2cc(-c3ccccc3)c(N3CCOCC3)s2)cc1` [Example 47, (4-Methylsulfanyl-phenyl)-(5-morpholin-4-yl-4-phenyl-thiophene-2-yl)-methanone], the inhibition in vivo at 50 mg/kg in test [1] amounted to 5%. Further, the figures for the inhibition at 1 µM in test [2] and in test [3] were -1.5% and 21.2%, respectively.

As for `O=C(c1ccncc1)c1cc(-c2ccccc2)c(N2CCOCC2)s1` [Example 51, (5-Morpholin-4-yl-4-phenyl-thiophene-2-yl)-pyridine-4-yl-methanone], the inhibition in vivo at 50 mg/kg in test [1] is 39.6%. The inhibition at 1 µM in test [2] came to 8.36%; in test [3], 16.8%. On to `COc1c(C)cc(-c2cc(-c3ccc(S(C)(=O)=O)cc3)c(N3CCOCC3)s2)nc1C` [Example 52, 4-[3-(4-Methanesulfonyl-phenyl)-5-(5-methoxy-4,6-dimethyl-pyridine-2-yl)-thiophene-2-yl]-morpholine], for which, in test [1], the inhibition in vivo at 50 mg/kg was 61.1%. Also, the inhibition at 1 µM is 5.81% in test [2] and -7.93% in test [3].

In the case of `COc1ccc(C(=O)c2cc(-c3ccc(S(C)(=O)=O)cc3)c(N3CCOCC3)s2)cc1` [Example 56, [4-(4-Methanesulfonyl-phenyl)-5-morpholin-4-yl-thiophene-2-yl]-(4-methoxy-phenyl)-methanone], the inhibition in vivo at 50 mg/kg in test [1] worked out at 77.8%. The inhibition at 1 µM in test [2] amounted to 18.1%; in test [3], 76.1%.

As to `CS(=O)(=O)c1ccc(-c2cc(C(=O)c3ccncc3)sc2N2CCOCC2)cc1` [Example 63, [4-(4-Methanesulfonyl-phenyl)-5-morpholin-4-yl-thiophene-2-yl]-pyridin-4-yl-methanone], the inhibition in vivo at 50 mg/kg in test [1] amounted to 50%. Also, the values for the inhibition at 1 µM in test [2] and in test [3] were 10.5% and 5.71%, respectively. On the same counts, the results for `COc1c(C)cc(C(=O)c2cc(-c3ccc(NC(C)=O)cc3)c(N3CCOCC3)s2)nc1C` [Example 64, N-{4-[5-(5-Methoxy-4,6-dimethyl-pyridine-2-carbonyl)2-morpholin-4-yl-thiophene-3-yl]-phenyl}-acetamide] are 49%, -4.95% and 26.2%.

For the compound `CC(=O)Nc1ccc(-c2cc(C(=O)c3ccccc3)sc2N2CCOCC2)cc1` [Example 66, N-[4-(5-Benzoyl-2-morpholin-4yl-thiophene-3-yl)-phenyl]-acetamide], the inhibition in vivo at 50 mg/kg in test [1] stood at 40%. Also, the results for the inhibition at 1 µM in test [2] and in test [3] were 24.2% and -2.98%, respectively. As to `CC(=O)Nc1ccc(-c2cc(-c3nc4ccccc4c(=O)n3-c3ccccc3)sc2N2CCOCC2)cc1` [Example 274, N-{4-[2-Morpholin-4-yl-5-(4-oxo-3-phenyl-3-,4-dihydro-quinazolin-2-yl)-thiophene-3-yl]-phenyl}-acetamide], the “% Protection P” value in test [1] is 28%. Moreover, the “NFkB inhibition @ 1 uM” value in test [2] was 29. Take `O=c1c2ccccc2nc(-c2cc(-c3ccncc3)c(N3CCOCC3)s2)n1-c1ccccc1` [Example 277]: the “% Protection P” value in test [1] is reported as 65%. For the same compound, the “AP-1 inhibition @ 1 uM” value in test [3] was determined as 38.

In the case of `COc1ccccc1-n1c(-c2cc(-c3ccncc3)c(N3CCOCC3)s2)nc2ccccc2c1=O` [Example 298], the “% Protection P” value in test [1] is 42%. In test [2], the “NFkB inhibition @ 1 uM” value is 55. With `Cc1cc(-c2sc(Nc3ccc(Cl)cc3)nc2NC(=O)Nc2ccc(F)cc2)ncc1OCC(F)(F)F` [Example 361, 1-{2-(4-Chloro-phenylamino)-5-[4-methyl-5-(2,2,2-trifluoro-ethoxy)-pyridin-2-yl]-thiazol-4-yl}-3-(4-fluoro-phenyl)-urea], the inhibition in vivo at 50 mg/kg in test [1] was determined as 77.9%. Turning to `COc1ccc(Nc2nc(NC(=O)Nc3ccc(F)cc3)c(C(=O)c3ccc(C)cc3)s2)cc1` [Example 362, 1-[2-(4-Methoxy-phenylamino)-5-(4-methyl-benzoyl)-thiazol-4-yl]-3-(4-fluoro-phenyl)-urea], in test [1], the inhibition in vivo at 50 mg/kg stood at 61.3%.

For the compound `COc1ccc(Nc2nc(NC(=O)Nc3ccc(F)cc3)c(C(=O)c3ccc(Cl)cc3)s2)cc1` [Example 363, 1-[5-(4-Chloro-benzoyl)-2-(4-methoxy-phenylamino)-thiazol-4-yl]-3-(4-fluoro-phenyl)-urea], the inhibition in vivo at 50 mg/kg in test [1] is 54.5%. `COc1ccc(Nc2nc(NC(=O)Nc3ccc(F)cc3)c(C(=O)c3ccc(S(C)(=O)=O)cc3)s2)cc1` [Example 364, 1-(4-Fluoro-phenyl)-3-[5-(4-methanesulfonyl-benzoyl)-2-(4-methoxy-phenylamino)-thiazol-4-yl]-urea]: the “% Protection P” value in test [1] worked out at 66.78%. `COc1ccc(Nc2nc(NC(=O)Nc3ccc(F)cc3)c(C(=O)c3ccncc3)s2)cc1` [Example 365, 1-(4-Fluoro-phenyl)-3-[2-(4-methoxy-phenylamino)-5-(pyridine-4-carbonyl)-thiazol-4-yl]-urea]: the inhibition in vivo at 50 mg/kg in test [1] amounted to 69.6%. With `COc1ccc(Nc2nc(NC(=O)Nc3ccc(F)cc3)c(-c3cc(C)c(OC)c(C)n3)s2)cc1` [Example 366, 1-(4-Fluoro-phenyl)-3-[5-(5-methoxy-4,6-dimethyl-pyridin-2-yl)-2-(4-methoxy-phenylamino)-thiazol-4-yl]-urea], in test [1], the inhibition in vivo at 50 mg/kg was determined as 19.1%.

As for `COc1ccc(C(=O)c2sc(N3CCN(C(=O)c4ccco4)CC3)nc2-c2ccco2)cc1` [Example 372, {2-[4-(Furan-2-carbonyl)-piperazin-1-yl]-4-furan-2-yl-thiazol-5-yl}-(4-methoxy-phenyl)-methanone], the inhibition in vivo at 50 mg/kg in test [1] stood at 52.2%. Consider `O=C(c1ccccn1)c1sc(N2CCN(C(=O)c3ccco3)CC2)nc1-c1ccco1` [Example 380, {2-[4-(Furan-2-carbonyl)-piperazin-1-yl]-4-furan-2-yl-thiazol-5-yl}-pyridin-2-yl-methanone], for which the inhibition in vivo at 50 mg/kg in test [1] was 42%. Regarding `Cc1ccc(C(=O)c2sc(N3CCN(C(=O)c4ccco4)CC3)nc2-c2ccccc2)cc1` [Example 381, {2-[4-(Furan-2-carbonyl)-piperazin-1-yl]-4-phenyl-thiazol-5-yl}-tolyl-methanone], the “% Protection P” value in test [1] worked out at 53%. Besides, the “AP-1 inhibition @ 1 uM” value in test [3] came out at 10.42. With `COc1ccc(C(=O)c2sc(N3CCN(C(=O)c4ccco4)CC3)nc2-c2ccccc2)cc1` [Example 382, {2-[4-(Furan-2-carbonyl)-piperazin-1-yl]-4-phenyl-thiazol-5-yl}-(4-methoxy-phenyl)-methanone], the inhibition in vivo at 50 mg/kg in test [1] is 46%.

`O=C(c1ccncc1)c1sc(N2CCN(C(=O)c3ccco3)CC2)nc1-c1ccccc1` [Example 387, {2-[4-(Furan-2-carbonyl)-piperazin-1-yl]-4-phenyl-thiazol-5-yl}-pyridin-4-yl-methanone]: the inhibition in vivo at 50 mg/kg in test [1] is 32%. Same read-out and setting: the figure for `COc1ccccc1Nc1nc(-c2ccccc2)c(C(=O)c2sc(Nc3ccccc3OC)nc2-c2ccccc2)s1` [Example 391, Bis-[2-(2-methoxy-phenylamino)-4-phenyl-thiazol-5-yl]-methanone] is 59%. Turning to `COc1cccc(Nc2nc(-c3ccccc3)c(C(=O)c3sc(Nc4cccc(OC)c4)nc3-c3ccccc3)s2)c1` [Example 392, Bis-[2-(3-methoxy-phenylamino)-4-phenyl-thiazol-5-yl]-methanone], in test [1], the inhibition in vivo at 50 mg/kg came out at 62%. Same read-out and setting: the same measure for `COc1ccc(Nc2nc(-c3ccccc3)c(C(=O)c3sc(Nc4ccc(OC)cc4)nc3-c3ccccc3)s2)cc1` [Example 393, Bis-[2-(4-methoxy-phenylamino)-4-phenyl-thiazol-5-yl]-methanone]: 32%. As for “Bis-(2-methylamino-4-benzayl-thiazole-5-yl)-methanone [Example 132]”, in test [1], the “% Protection P” value is 47%. “Diphenyl[carbonylbis(4-Benzyl-1,3-thiazole-5,2-diyl)]biscarbamate [Example 395]”: in test [1], the “% Protection P” value is 66%. The same measure, in the same setting: the figure for “N-[4-(5-Morpholin-4-yl-4-thiophene-2-carbonyl)-phenyl]-acetamide [Example 49]” is 68.31%; for “[4-(4-Chloro-phenyl)-5-morpholin-4-yl-thiophen-2-yl]-(5-methoxy-4,6-dimethyl-pyridin-2-yl)-methanone [Example 76]” it is 17%.
